Assay [1] addresses T1, human dopamine D1 receptor (Homo sapiens, UniProt P21728).
T1 construct: expressed in transfected cells; host or cells: HEK293T cells, transient transfection
Description: Competition binding, [3H]SCH23390, HEK293T membranes. The conditions noted are these: read-out: Ki value D1.

The target in assay [2] is T2, human serotonin 5-HT1A receptor (Homo sapiens, UniProt P08908).
T2 construct: expressed in transfected cells; host or cells: HEK293T cells, transient transfection
T2 sequence (P08908 1-422): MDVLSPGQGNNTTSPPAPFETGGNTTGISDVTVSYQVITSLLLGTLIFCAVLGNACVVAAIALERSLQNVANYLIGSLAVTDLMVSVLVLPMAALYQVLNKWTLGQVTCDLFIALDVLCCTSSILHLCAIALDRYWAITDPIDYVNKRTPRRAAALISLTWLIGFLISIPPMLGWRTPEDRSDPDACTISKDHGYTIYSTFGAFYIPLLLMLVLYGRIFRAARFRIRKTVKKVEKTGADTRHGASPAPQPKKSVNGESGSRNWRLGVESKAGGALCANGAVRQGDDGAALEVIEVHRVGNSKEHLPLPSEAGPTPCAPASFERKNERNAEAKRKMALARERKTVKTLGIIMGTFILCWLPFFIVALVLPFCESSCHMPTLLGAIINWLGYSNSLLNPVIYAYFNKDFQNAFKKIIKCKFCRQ
Description: Competition binding, [3H]WAY600135, HEK293T membranes. The conditions noted are these: ± SD of two experiments.

Assay [3] addresses T3, human serotonin 5-HT2A receptor (Homo sapiens, UniProt P28223).
T3 construct: expressed in transfected cells; host or cells: HEK293T cells, transient transfection
The experiment in a line: Competition binding, [3H]ketanserin, HEK293T membranes. The conditions noted are these: ± SD of two experiments.

In assay [4] the target is T4, human adrenergic α1A receptor (Homo sapiens, UniProt P35348).
T4 construct: expressed in transfected cells; host or cells: HEK293T cells, transient transfection
T4 sequence (P35348 1-466): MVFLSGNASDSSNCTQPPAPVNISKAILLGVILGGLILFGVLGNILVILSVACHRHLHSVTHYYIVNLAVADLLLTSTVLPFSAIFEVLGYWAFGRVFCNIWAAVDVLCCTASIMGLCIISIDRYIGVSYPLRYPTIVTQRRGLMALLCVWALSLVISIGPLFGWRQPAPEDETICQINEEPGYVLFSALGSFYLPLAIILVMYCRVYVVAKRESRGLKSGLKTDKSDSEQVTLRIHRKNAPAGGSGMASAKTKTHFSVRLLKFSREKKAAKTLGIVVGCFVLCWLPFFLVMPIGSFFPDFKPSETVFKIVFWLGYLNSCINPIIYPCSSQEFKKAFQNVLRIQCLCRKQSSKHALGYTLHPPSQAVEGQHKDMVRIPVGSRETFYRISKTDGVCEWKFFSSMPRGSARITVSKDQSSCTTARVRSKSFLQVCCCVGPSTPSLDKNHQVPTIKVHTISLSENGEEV
The experiment in a line: Competition binding, [3H]prazosin, HEK293T membranes. To be noted: ± SD of two experiments.

In assay [5] the target is T5, human adrenergic α2A receptor (Homo sapiens, UniProt P08913).
T5 construct: expressed in transfected cells; host or cells: HEK293T cells, transient transfection
T5 sequence (P08913 1-465): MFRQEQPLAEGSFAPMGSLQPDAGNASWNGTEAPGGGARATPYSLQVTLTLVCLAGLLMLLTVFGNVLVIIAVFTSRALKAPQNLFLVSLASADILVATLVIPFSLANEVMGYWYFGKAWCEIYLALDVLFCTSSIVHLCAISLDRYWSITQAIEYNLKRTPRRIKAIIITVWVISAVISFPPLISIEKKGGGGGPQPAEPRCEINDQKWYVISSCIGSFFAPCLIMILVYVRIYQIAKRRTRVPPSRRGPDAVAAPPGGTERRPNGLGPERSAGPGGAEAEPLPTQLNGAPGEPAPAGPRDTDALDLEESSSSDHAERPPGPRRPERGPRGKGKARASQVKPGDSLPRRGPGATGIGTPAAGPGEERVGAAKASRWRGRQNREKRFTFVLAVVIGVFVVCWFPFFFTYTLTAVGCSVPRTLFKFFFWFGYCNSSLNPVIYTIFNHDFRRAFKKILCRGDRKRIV
Description: Competition binding, [3H]RX821002, HEK293T membranes. The conditions noted are these: [3H]RX821002; ± SD of two experiments.

The subject of assay [6] is D2 and D3 receptors. The experiment in a line: Radioligand binding, summary over D2 and D3 subtypes. Set-up: species or system human.
The target in assay [7] is T6, human dopamine receptor subtype D4.4 (Homo sapiens, UniProt P21917).
T6 sequence (P21917 1-419): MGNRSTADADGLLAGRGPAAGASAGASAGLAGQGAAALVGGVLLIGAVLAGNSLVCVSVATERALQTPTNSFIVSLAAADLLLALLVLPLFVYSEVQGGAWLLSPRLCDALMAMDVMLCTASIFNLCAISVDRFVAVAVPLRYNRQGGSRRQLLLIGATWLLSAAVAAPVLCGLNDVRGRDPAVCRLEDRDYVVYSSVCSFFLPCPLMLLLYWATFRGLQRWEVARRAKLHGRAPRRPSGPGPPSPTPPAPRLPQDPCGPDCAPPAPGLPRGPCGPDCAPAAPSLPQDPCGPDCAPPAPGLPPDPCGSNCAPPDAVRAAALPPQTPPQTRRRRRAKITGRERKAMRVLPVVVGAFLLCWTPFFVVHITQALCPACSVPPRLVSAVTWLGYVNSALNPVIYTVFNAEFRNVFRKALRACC
Description: Radioligand displacement, [3H]spiperone, CHO cell membranes. The assay is classed as binding. To be noted: [3H]spiperone; mean ± SEM of 4-9 experiments; compounds 1, 2, 3: ± SD of two experiments; read-out: Ki value D4.4. In general terms: Displacement assays read how much labelled ligand stays bound in the presence of the test substance.

In assay [8] the target is T7, D2S receptor (HEK293T cells co-transfected with D2S and Gαqi) (Homo sapiens, UniProt P14416).
T7 construct: expressed in transfected cells; host or cells: HEK-293T cells, transient co-transfection
T7 sequence (P14416 1-414 isoform P14416-2): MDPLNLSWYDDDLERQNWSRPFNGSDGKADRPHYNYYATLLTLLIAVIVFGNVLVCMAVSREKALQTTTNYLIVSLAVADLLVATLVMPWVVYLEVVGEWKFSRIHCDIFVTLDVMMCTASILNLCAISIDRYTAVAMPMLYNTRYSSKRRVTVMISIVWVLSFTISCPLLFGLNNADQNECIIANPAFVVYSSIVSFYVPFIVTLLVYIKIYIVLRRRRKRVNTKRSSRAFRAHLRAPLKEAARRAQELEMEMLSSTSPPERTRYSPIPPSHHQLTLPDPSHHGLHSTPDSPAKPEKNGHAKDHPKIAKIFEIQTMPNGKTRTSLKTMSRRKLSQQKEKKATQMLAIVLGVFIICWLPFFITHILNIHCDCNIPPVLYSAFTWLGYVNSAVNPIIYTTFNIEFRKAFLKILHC
The experiment in a line: Photoactivation by direct irradiation of the cellular test system, quinpirole mediated IP accumulation. The format is cell-based. To be noted: buffer and compound irradiated at 365 nm for 10 or 20 sec. The text has this:
[…]. Mean curves ± SEM of 4–9 individual curves each done in triplicates. […]. Mean curves from 3–4 experiments each done in duplicate. […]. While 4 (MG307) (green bars) is completely released after 10 sec, the uncaging of 5 (red bars) needs 20 sec. […]. Mean bars ± SEM derived from 3–11 individual experiments each done in quintuplicates. Irradiation with a solution of test compound before addition to the cellular test system. […]. Means ± SEM from 6 experiments in quintuplicates.
[…]. Actually, we observed an onset of a strong inverse agonist effect on quinpirole-induced IP accumulation after irradiation of the nitrobenzyl-caged compound 4 (MG307). […] […]. […] To complement uncaging of the test compounds by irradiation of the test compounds before addition to receptor by a biologically more significant experiment, we investigated whether uncaging can also be accomplished directly in the cellular system. […] In fact, quinpirole-promoted IP accumulation was substantially attenuated after irradiation for 10 or 20 sec. […] […]. […] […].
HEK293T cells were transiently co-transfected with D2S and Gαqi. Solutions of the test compounds were irradiated at λ = 365 nm using the same LED as for the photochemistry experiments (see above) for 2, 5, 10 or 20 sec and the test compound was added to the cell system immediately after illumination. […]. Accumulation of IP was determined as described above. […]. […]

The structures appear in SMILES notation. Where only a bound is given, the exact number is not on record here.

T3 sequence (P28223 whole entry): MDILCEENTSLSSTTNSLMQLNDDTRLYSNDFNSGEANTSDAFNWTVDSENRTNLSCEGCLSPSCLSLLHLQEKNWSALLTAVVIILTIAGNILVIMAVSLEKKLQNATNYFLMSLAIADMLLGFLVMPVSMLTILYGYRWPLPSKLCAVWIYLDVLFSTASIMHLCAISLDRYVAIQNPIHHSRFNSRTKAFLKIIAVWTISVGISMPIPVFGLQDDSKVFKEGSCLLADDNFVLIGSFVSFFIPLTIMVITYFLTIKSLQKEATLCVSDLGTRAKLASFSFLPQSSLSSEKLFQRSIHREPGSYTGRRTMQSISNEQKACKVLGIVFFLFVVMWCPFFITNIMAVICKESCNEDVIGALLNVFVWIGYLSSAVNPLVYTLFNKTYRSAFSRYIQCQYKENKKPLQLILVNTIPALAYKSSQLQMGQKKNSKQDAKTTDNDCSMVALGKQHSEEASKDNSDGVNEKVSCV
T1 sequence (P21728 whole entry): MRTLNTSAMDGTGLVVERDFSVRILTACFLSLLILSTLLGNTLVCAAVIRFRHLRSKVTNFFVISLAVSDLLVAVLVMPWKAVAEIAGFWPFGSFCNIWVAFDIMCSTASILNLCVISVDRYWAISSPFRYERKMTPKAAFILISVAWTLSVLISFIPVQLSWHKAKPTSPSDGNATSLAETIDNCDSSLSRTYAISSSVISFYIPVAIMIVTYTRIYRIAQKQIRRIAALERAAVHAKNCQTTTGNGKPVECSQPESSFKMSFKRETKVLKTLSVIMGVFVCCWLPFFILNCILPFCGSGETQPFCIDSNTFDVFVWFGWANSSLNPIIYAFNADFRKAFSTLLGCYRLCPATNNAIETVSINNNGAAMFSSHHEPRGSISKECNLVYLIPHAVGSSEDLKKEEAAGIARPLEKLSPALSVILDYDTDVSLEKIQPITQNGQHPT

As for `CCc1ccc(OC)c(C(=O)NC[C@@H]2CCCN2CC)c1O` [dechloroeticlopride, (S)-3-Ethyl-N-[(1-ethylpyrrolidin-2-yl)methyl]-2-hydroxy-6-methoxybenzamide, reference compound], the Ki – broadly, the dissociation constant of the complex between target and ligand, obtained from inhibition or displacement – in assay [1] is 11000 ± 3600 nM; in assay [2] it was 1800 ± 420 nM; in assay [3] it was 270 ± 28 nM; in assay [4], 880 ± 150 nM; in assay [5] it was 100 ± 36 nM; in assay [6] (range over D2L, D2S, D3, stated in text), 1.2 to 2.4 nM. Besides, the “difference in affinity, uncaged dechloroeticlopride over 4, 5 and 6” value in assay [6] (at D2S and D3, radioligand displacement curves) was “more than 100 fold”.
With `CCc1ccc(OC)c(C(=O)NC[C@@H]2CCCN2CC)c1OCc1ccccc1[N+](=O)[O-]` [compound 4, (S)-3-Ethyl-N-[(1-ethylpyrrolidin-2-yl)methyl]-6-methoxy-2-[(2-nitrobenzyl)oxy]benzamide], the Ki in assay [7] is 2800 ± 180 nM. The “remaining D2S promoted signalling (IP accumulation) after irradiation in the cellular system” value in assay [8] was under 5%.
Turning to `CCc1ccc(OC)c(C(=O)NC[C@@H]2CCCN2CC)c1OCc1cc(OC)c(OC)cc1[N+](=O)[O-]` [compound 5], in assay [7], the Ki worked out at 25000 ± 3300 nM. Besides, in assay [8], the “remaining D2S promoted signalling (IP accumulation) after irradiation in the cellular system” value was “about 35%”.

Source of the values: article PMC6972920, “Structure-based development of caged dopamine D2/D3 receptor antagonists” (Scientific Reports, 2020).
